Where no end group is shown, it is not given here.
What was measured:
[1] = test system: S. aureus RM4220; test: URDA, MEC; type: cell-based, Staphylococcus aureus; settings: S. aureus RM4220, Gram +, pH 6.6, 37 °C, triplicate averaged
Description: (§1) The antimicrobial activity of the purified peptide was assessed as described previously. We tested the synthetic peptides against several Gram-positive bacteria including two Bacillus subtilis strains, Micrococcus luteus, Staphylococcus aureus, and Streptococcus iniae, Gram-negative bacteria including three Escherichia coli strains, Aeromonas hydrophila, Edwardsiella tarda, Pseudomonas aeruginosa, Vibrio parahemolyticus, and Salmonella enteric, as well as the yeast Candida albicans. All strains were grown overnight for 18 h in trypticase soy broth (TSB) or sabouraud dextrose broth (SDB) at the appropriate temperature (25 °C for A. hydrophila, E. tarda, P. aeruginosa, S. iniae, and V. parahemolyticus and 37 °C for the other strains). After an overnight incubation, the bacterial and C. albicans suspensions were diluted to a McFarland turbidity standard of 0.5 (Vitek Colorimeter #52-1210; Hach, Loveland, CO, USA) corresponding to ~10^8 CFU/mL for bacteria and ~10^6 CFU/mL for C. albicans. One-half milliliter of diluted bacterial or C. albicans suspension was added to 9.5 mL of underlay gel containing 5 × 10^6 CFU/mL or 5 × 10^4 CFU/mL in 10 mM phosphate buffer (PB; pH 6.6) with 0.03% TSB or 0.03% SDB and 1% Type I (low EEO) agarose. The purified peptide was serially diluted twofold in 5 μL of acidified water (0.01% HAc), and each dilution was added to 2.5-mm-diameter wells made in the 1-mm-thick underlay gels. After incubation for 3 h at either 25 °C (for A. hydrophila, E. tarda, P. aeruginosa, S. iniae, and V. parahemolyticus) or 37 °C (the other strains), the bacterial or yeast suspension was overlaid with 10 mL of double-strength overlay gel containing 6% TSB or 6% SDB with 10 mM PB (pH 6.6) in 1% agarose. Plates were incubated for an additional 18–24 h, after which the clearing zone diameters were measured. After subtracting the diameter of the well, the clearing zone diameter was expressed in units (0.1 mm = 1 U).
(§2) All tested bacteria and yeast were prepared as described above. The minimal effective concentration (MEC, μg/mL) of the synthetic peptides was calculated as the x-intercept of a plot of units against the log10 of the peptide concentration. […] The antimicrobial assay was performed in triplicate and the results were averaged.

[2] = test system: M. luteus ATCC9341; test: URDA, MEC; type: cell-based, Micrococcus luteus; settings: M. luteus ATCC9341, Gram +, pH 6.6, 37 °C, triplicate averaged
Description: as §1, §2

[3] = test system: E. tarda H-4; test: URDA, MEC; type: cell-based, Edwardsiella tarda; settings: fish pathogen E. tarda H-4, Gram −, pH 6.6, 25 °C, triplicate averaged
Description: as §1, §2

[4] = test system: A. hydrophila KCTC2358; test: URDA, MEC; type: cell-based, Aeromonas hydrophila; settings: fish pathogen A. hydrophila KCTC2358, Gram −, pH 6.6, 25 °C, triplicate averaged
Description: as §1, §2

[5] = test system: E. coli ML35p outer membrane; test: Outer membrane permeabilization, NPN uptake assay; type: cell-based, Escherichia coli; settings: peptide 40 μg/mL, 3 min after addition, 25 °C, 5 mM HEPES pH 7.2; order 2A > 6A > 1N > 5A; triplicate
Description: (§3) The outer membrane-permeabilizing activity of peptides was determined using the 1-N-phenylnapthylamine (NPN) uptake assay as described by Koo et al.. Briefly, an overnight culture of E. coli ML35p was transferred to fresh TSB medium and grown to A600 of 0.5–0.6. Cells were harvested, washed, and resuspended in the same volume of buffer (5 mM HEPES, pH 7.2, 5 mM KCN, and 5 mM glucose). Next, 20 μL of 0.5 mM NPN was added and mixed with 1 mL of cells, and peptide samples (40 μg/mL) were added after 3 min. The increase in fluorescence due to partitioning of NPN into the outer membrane was measured 3 min after the addition of peptides using a spectrofluorometer (LS 50B Fluorescence Spectrometer; PerkinElmer, Waltham, MA, USA) at an excitation wavelength of 350 nm and an emission wavelength of 420 nm at 25 °C. The extent of cytoplasmic membrane permeabilization was determined by measuring β-galactosidase activity in E. coli ML35p using O-nitrophenyl-β-D-galactopyranoside (ONPG), a nonmembrane-permeative chromogenic substrate. Mid-logarithmic phase E. coli cells were washed in 10 mM sodium phosphate buffer (NaPB), pH 7.4, and resuspended in the same buffer with 1.5 mM ONPG. The hydrolysis of ONPG to O-nitrophenol over time was monitored spectrophotometrically at 420 nm following the addition of peptide samples. Membrane permeabilization assays were performed in triplicate and the results were averaged.

[6] = test system: V. parahemolyticus KCCM41664; test: URDA, MEC; type: cell-based, Vibrio parahemolyticus; settings: fish pathogen V. parahemolyticus KCCM41664, Gram −, pH 6.6, 25 °C, triplicate averaged
Description: as §1, §2

[7] = test system: E. coli ML35p; test: URDA, MEC; type: cell-based, Escherichia coli; settings: Gram −, pH 6.6, 37 °C, triplicate averaged
Description: as §1, §2

[8] = test system: E. coli KCTC1116; test: URDA, MEC; type: cell-based, Escherichia coli; settings: E. coli KCTC1116, Gram −, pH 6.6, 37 °C, triplicate averaged
Description: as §1, §2

[9] = test system: E. coli ML35p inner cytoplasmic membrane; test: Cytoplasmic membrane permeabilization, β-galactosidase/ONPG assay; type: cell-based, Escherichia coli; settings: peptide 40 μg/mL, 10 mM NaPB pH 7.4, 1.5 mM ONPG; triplicate
Description: as §3

[10] = test system: S. enterica KCTC2514; test: URDA, MEC; type: cell-based, Salmonella enteric; settings: S. enterica KCTC2514, Gram −, pH 6.6, 37 °C, triplicate averaged
Description: as §1, §2

[11] = test system: B. subtilis KCTC1021; test: Ultrasensitive radial diffusion assay (URDA), MEC; type: cell-based, Bacillus subtilis; settings: B. subtilis KCTC1021, Gram +, 10 mM PB pH 6.6, 37 °C, x-intercept of units vs log10 concentration, triplicate averaged
Description: as §1, §2

[12] = test system: B. subtilis RM125; test: URDA, MEC; type: cell-based, Bacillus subtilis; settings: B. subtilis RM125, Gram +, pH 6.6, 37 °C, triplicate averaged
Description: as §1, §2

[13] = test system: P. aeruginosa KCTC2004; test: URDA, MEC; type: cell-based, Pseudomonas aeruginosa; settings: P. aeruginosa KCTC2004, Gram −, pH 6.6, 25 °C, triplicate averaged
Description: as §1, §2

[14] = test system: C. albicans KCTC7965; test: URDA, MEC; type: cell-based, Candida albicans; settings: C. albicans KCTC7965, yeast, pH 6.6, 37 °C, triplicate averaged
Description: as §1, §2

[15] = test system: S. iniae FP5229; test: URDA, MEC; type: cell-based, Streptococcus iniae; settings: fish pathogen S. iniae FP5229, Gram +, pH 6.6, 25 °C, triplicate averaged
Description: as §1, §2

KLVKTQLKVLK [ofLBP 4N] was tested, and the “Minimal Effectives Concentration” value [1] was 62.5 µg/mL, the “Minimal Effectives Concentration” value [2] was 250.0 µg/mL and the “Minimal Effectives Concentration” value [3] was greater than 250.0 µg/mL. The “Minimal Effectives Concentration” value [4] was greater than 250.0 µg/mL, the “Outer membrane permeabilization ability (NPN fluorescence)” value (shortened to “Outer membrane permeabilization ability”) [5] was “no inner or outer membrane permeability” and the “Minimal Effectives Concentration” value [6] was 1.3 µg/mL. For the same substance, the “Minimal Effectives Concentration” value [7] was 250.0 µg/mL, the “Minimal Effectives Concentration” value [8] was 1.5 µg/mL and the “Inner cytoplasmic membrane permeabilization ability (ONPG hydrolysis, 420 nm)” value [9] was “no permeabilization ability”. The “Minimal Effectives Concentration” value [10] was 250.0 µg/mL, the “Minimal Effectives Concentration” value [11] was 62.5 µg/mL and the “Minimal Effectives Concentration” value [12] was 250.0 µg/mL. The “Minimal Effectives Concentration” value [13] was greater than 250.0 µg/mL, the “Minimal Effectives Concentration” value [14] was 125.0 µg/mL and the “Minimal Effectives Concentration” value [15] was greater than 250.0 µg/mL.

KLVKTWLKVLK [ofLBP 5A] was tested, and the “Minimal Effectives Concentration” value [1] was 3.7 µg/mL, the “Minimal Effectives Concentration” value [2] was 8.0 µg/mL and the “Minimal Effectives Concentration” value [3] was 250.0 µg/mL. For the same substance, the “Minimal Effectives Concentration” value [4] was 5.0 µg/mL, the “Outer membrane permeabilization ability” value [5] was “significant outer membrane permeabilization ability” and the “Minimal Effectives Concentration” value [6] was 1.2 µg/mL. The “Minimal Effectives Concentration” value [7] was 1.6 µg/mL, the “Minimal Effectives Concentration” value [8] was 1.6 µg/mL and the “Inner cytoplasmic membrane permeabilization ability (ONPG hydrolysis, 420 nm)” value [9] was “no permeabilization ability”. For the same substance, the “Minimal Effectives Concentration” value [10] was 3.5 µg/mL, the “Minimal Effectives Concentration” value [11] was 0.7 µg/mL and the “Minimal Effectives Concentration” value [12] was 4.2 µg/mL. The “Minimal Effectives Concentration” value [13] was 8.0 µg/mL, the “Minimal Effectives Concentration” value [14] was 4.0 µg/mL and the “Minimal Effectives Concentration” value [15] was 2.7 µg/mL.

In the case of MKLVKTWLKVLK-NH2 [ofLBP 6A], the “Minimal Effectives Concentration” value [1] is reported as 2.7 µg/mL, the “Minimal Effectives Concentration” value [2] is reported as 2.2 µg/mL and the “Minimal Effectives Concentration” value [3] is reported as 62.5 µg/mL. For the same substance, the “Minimal Effectives Concentration” value [4] was 2.8 µg/mL, the “Outer membrane permeabilization ability” value [5] was “significant outer membrane permeabilization ability” and the “Minimal Effectives Concentration” value [6] was 0.9 µg/mL. For the same substance, the “Minimal Effectives Concentration” value [7] was 1.8 µg/mL, the “Minimal Effectives Concentration” value [8] was 3.8 µg/mL and the “Inner cytoplasmic membrane permeabilization ability (ONPG hydrolysis, 420 nm)” value [9] was “strong permeabilization ability”. The “Minimal Effectives Concentration” value [10] was 2.6 µg/mL, the “Minimal Effectives Concentration” value [11] was 1.4 µg/mL and the “Minimal Effectives Concentration” value [12] was 1.8 µg/mL. The “Minimal Effectives Concentration” value [13] was 4.6 µg/mL, the “Minimal Effectives Concentration” value [14] was 2.7 µg/mL and the “Minimal Effectives Concentration” value [15] was 1.2 µg/mL.

With Piscidin 1 [reference compound] the “Minimal Effectives Concentration” value [1] was 2.2 µg/mL, the “Minimal Effectives Concentration” value [2] was 2.3 µg/mL and the “Minimal Effectives Concentration” value [3] was 125.0 µg/mL. The “Minimal Effectives Concentration” value [4] was 10.0 µg/mL, the “Outer membrane permeabilization ability” value [5] was “strong permeabilization ability” and the “Minimal Effectives Concentration” value [6] was 1.8 µg/mL. For the same substance, the “Minimal Effectives Concentration” value [7] was 2.3 µg/mL, the “Minimal Effectives Concentration” value [8] was 7.0 µg/mL and the “Inner cytoplasmic membrane permeabilization ability (ONPG hydrolysis, 420 nm)” value [9] was “strong cytoplasmic membrane permeabilizing activity”. The “Minimal Effectives Concentration” value [10] was 7.0 µg/mL, the “Minimal Effectives Concentration” value [11] was 2.3 µg/mL and the “Minimal Effectives Concentration” value [12] was 4.5 µg/mL. The “Minimal Effectives Concentration” value [13] was 8.0 µg/mL, the “Minimal Effectives Concentration” value [14] was greater than 62.5 µg/mL and the “Minimal Effectives Concentration” value [15] was 6.5 µg/mL.

“RFPGLMMKLLV-NH2 (C-terminus assumed) [ofLBP 1N]” was tested, and the “Minimal Effectives Concentration” value [1] was 5.6 µg/mL, the “Minimal Effectives Concentration” value [2] was 5.3 µg/mL and the “Minimal Effectives Concentration” value [3] was 125.0 µg/mL. The “Minimal Effectives Concentration” value [4] was 4.8 µg/mL, the “Outer membrane permeabilization ability” value [5] was “significant outer membrane permeabilization ability” and the “Minimal Effectives Concentration” value [6] was 2.2 µg/mL. The “Minimal Effectives Concentration” value [7] was 0.8 µg/mL, the “Minimal Effectives Concentration” value [8] was 1.7 µg/mL and the “Inner cytoplasmic membrane permeabilization ability (ONPG hydrolysis, 420 nm)” value [9] was “strong permeabilization ability”. The “Minimal Effectives Concentration” value [10] was 1.2 µg/mL, the “Minimal Effectives Concentration” value [11] was 1.4 µg/mL and the “Minimal Effectives Concentration” value [12] was 1.0 µg/mL. For the same substance, the “Minimal Effectives Concentration” value [13] was 6.4 µg/mL, the “Minimal Effectives Concentration” value [14] was 5.9 µg/mL and the “Minimal Effectives Concentration” value [15] was 5.3 µg/mL.

For RFPKLMMKLLV-NH2 [ofLBP 2A], the “Minimal Effectives Concentration” value [1] was 5.0 µg/mL, the “Minimal Effectives Concentration” value [2] was 5.7 µg/mL and the “Minimal Effectives Concentration” value [3] was 62.5 µg/mL. The “Minimal Effectives Concentration” value [4] was 3.6 µg/mL, the “Outer membrane permeabilization ability” value [5] was “significant outer membrane permeabilization ability” and the “Minimal Effectives Concentration” value [6] was 1.7 µg/mL. For the same substance, the “Minimal Effectives Concentration” value [7] was 0.6 µg/mL, the “Minimal Effectives Concentration” value [8] was 1.2 µg/mL and the “Inner cytoplasmic membrane permeabilization ability (ONPG hydrolysis, 420 nm)” value [9] was “strong permeabilization ability”. For the same substance, the “Minimal Effectives Concentration” value [10] was 1.2 µg/mL, the “Minimal Effectives Concentration” value [11] was 0.8 µg/mL and the “Minimal Effectives Concentration” value [12] was 1.2 µg/mL. For the same substance, the “Minimal Effectives Concentration” value [13] was 6.6 µg/mL, the “Minimal Effectives Concentration” value [14] was 5.6 µg/mL and the “Minimal Effectives Concentration” value [15] was 3.0 µg/mL.

From paper PMC4210897, “Antimicrobial Activity of Peptides Derived from Olive Flounder Lipopolysaccharide Binding Protein/Bactericidal Permeability-Increasing Protein (LBP/BPI)” (Marine Drugs, 2014)
